Experimental data from PubChem BioAssay (NCI).
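All cell lines were grown in 96-well plates and treated with compound for 48 hours. TGI: total growth inhibition.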

Columns and labels:
Experiment in all cases: inhibition of tumour cell growth, NCI panel, 48 h
HT29 colon = tested on: HT29 colon
U251 CNS = tested on: U251 CNS
NCI-H522 lung = tested on: NCI-H522 lung
K-562 leukemia = tested on: K-562 leukemia
SK-MEL-28 melanoma = tested on: SK-MEL-28 melanoma
HCT-15 colon = tested on: HCT-15 colon
SF-268 CNS = tested on: SF-268 CNS
MALME-3M melanoma = tested on: MALME-3M melanoma
ACHN renal = tested on: ACHN renal
IGROV1 ovarian = tested on: IGROV1 ovarian

Measured: TGI

CN(C)CCNC(=O)c1ccc(NCCCN(C)CCCNc2ccc3c(=O)n(CCN(C)C)c(=O)n4c5ccccc5c(=O)c2c34)c2c(=O)c3ccccc3[nH]c12
0.161 µM: HT29 colon
0.453 µM: MALME-3M melanoma
0.653 µM: ACHN renal
1.06 µM: K-562 leukemia
1.34 µM: SK-MEL-28 melanoma
1.31 µM: HCT-15 colon
0.168 µM: NCI-H522 lung
0.257 µM: U251 CNS
1.16 µM: IGROV1 ovarian
0.326 µM: SF-268 CNS

Cc1cc(=O)n2nc(SCc3ccccc3)sc2n1
56.2 µM: ACHN renal
> 100 µM: all other assays above

O=C1CCC2(CCO1)OCCO2
> 100 µM: all assays above

N=C1N(S(=O)(=O)c2ccccc2)[C@@H](Cc2ccccc2)[C@H](c2ccccc2)C1(c1ccccc1)c1ccccc1
> 100 µM: all assays above

CC(=O)O[C@@H]1C[C@@]23C[C@@]24CC[C@H](OC2OCC(O)C(O)C2O)C(C)(C)[C@@H]4CC=C3[C@]2(C)C[C@@H]3OC4(C[C@@H](C)[C@@H]3[C@@]12C)OC(O)[C@@]1(C)O[C@@H]41 (stereo not given in full)
96.7 µM: HCT-15 colon
89.4 µM: NCI-H522 lung
> 100 µM: all other assays above

COc1cc(/C=C/C(=O)c2c(=O)o[nH][n+]2-c2ccccc2)ccc1[O-]
12 µM: MALME-3M melanoma
11 µM: U251 CNS
9.66 µM: IGROV1 ovarian
6.64 µM: HT29 colon
6.12 µM: HCT-15 colon
15.2 µM: SF-268 CNS
4.29 µM: NCI-H522 lung
6.17 µM: ACHN renal
8.85 µM: SK-MEL-28 melanoma
8.61 µM: K-562 leukemia

CCOP(=O)(OCC)C(Nc1cccc(F)c1)c1ccccc1 (stereo not given)
> 100 µM: all assays above

O=C(CSCC(=O)N/N=C/c1cccs1)N/N=C/c1cccs1
> 100 µM: all assays above

N#Cc1nc(CCCCCN2C(=O)c3ccccc3C2=O)oc1N
75.2 µM: NCI-H522 lung
> 100 µM: all other assays above

COC1OC(Cc2nnc(C)o2)C(OCc2ccccc2)C(OCc2ccccc2)C1OCc1ccccc1 (stereo not given)
45.3 µM: SK-MEL-28 melanoma
76.8 µM: ACHN renal
63.3 µM: HT29 colon
52.4 µM: IGROV1 ovarian
46.3 µM: SF-268 CNS
38.9 µM: MALME-3M melanoma
> 100 µM: U251 CNS | HCT-15 colon
52.7 µM: NCI-H522 lung
98.5 µM: K-562 leukemia

Nc1cccc2c1C(=O)c1cccc(N)c1C2=O
> 100 µM: all assays above

CCOC(=O)c1c(N2CCCC2)ncn(-c2ccccc2)c1=S
> 100 µM: all assays above

CCNc1ccc2c(c1)Cc1ccccc1-2
> 100 µM: all assays above

CC(C)=CCC[C@@H](C)C1=C(Nc2ccccc2Cl)C(O)=C(C)C(=O)C1=O
20.2 µM: SF-268 CNS
38 µM: U251 CNS
> 64.1 µM: K-562 leukemia
> 39.1 µM: IGROV1 ovarian
36 µM: HCT-15 colon
33.5 µM: SK-MEL-28 melanoma
11.1 µM: ACHN renal
12.2 µM: NCI-H522 lung
18.7 µM: MALME-3M melanoma
13.6 µM: HT29 colon

Cc1ccc(C2=NOC(=O)[C@@H]3CCCC[C@@H]23)cc1
> 100 µM: all assays above

CC(=O)OCC1OC(n2c3c(c(-c4cccc5ccccc45)c(C#N)c2=S)CCCC3)C(OC(C)=O)C(OC(C)=O)C1OC(C)=O (stereo not given)
> 100 µM: all assays above

COc1cccc(CC(C)NCC(O)c2ccc(O)c(O)c2)c1 (stereo not given)
> 100 µM: all assays above

COc1ccc(/C=c2\[nH]c3nc(=O)c(N4CCOCC4)c(N)n3c2=O)cc1
> 100 µM: all assays above
